Data reported in ChEMBL document CHEMBL2424627, “Synthesis of novel bioactive pyrazolothiazoles” (Med Chem Res, 2013).

What was measured:
[1] = tested on: THP-1; assay: Antiinflammatory activity in LPS-stimulated human THP1 cells assessed as inhibition of IL-6 release at 10 ug/ml after 24 hrs by ELISA relative to control; type: functional; details: THP-1, 24 h
[2] = tested on: THP-1; assay: Antiinflammatory activity in LPS-stimulated human THP1 cells assessed as inhibition of TNFalpha release at 10 ug/ml after 24 hrs by ELISA relative to control; type: functional; details: THP-1, 24 h
[3] = Cytotoxicity against human THP1 cells assessed as cell viability at 10 ug/ml after 24 hrs by CCK-8 assay; type: cell-based; details: THP-1 cells, read-out: Activity
[4] = Cytotoxicity against human THP1 cells assessed as cell viability at 1 ug/ml after 24 hrs by CCK-8 assay; details: THP-1 cells
[5] = tested on: THP-1; assay: Antiinflammatory activity in LPS-stimulated human THP1 cells assessed as inhibition of IL-6 release at 1 ug/ml after 24 hrs by ELISA relative to control; type: functional; details: THP-1, 24 h
[6] = tested on: THP-1; assay: Antiinflammatory activity in LPS-stimulated human THP1 cells assessed as inhibition of TNFalpha release at 1 ug/ml after 24 hrs by ELISA relative to control; type: functional; details: THP-1, 24 h

| Structure (SMILES) | inhibition at 10 µg/mL [1] | inhibition at 10 µg/mL [2] | viability at 24 h, 10 ug/ml [3] | viability at 24 h, 1 ug/ml [4] | inhibition at 1 µg/mL [5] | inhibition at 1 µg/mL [6] |
| --- | --- | --- | --- | --- | --- | --- |
| CCOC(=O)c1cn(-c2ccc(Cl)cc2)nc1-c1sc(N(C)c2ccccc2)nc1-c1ccccc1 | 51% | 11% | 23% |  |  |  |
| CCOC(=O)c1cn(-c2ccc([N+](=O)[O-])cc2[N+](=O)[O-])nc1-c1sc(N(C)c2ccccc2)nc1-c1ccccc1 | 52% | 5% | 17% |  |  |  |
| CCOC(=O)c1c[nH]nc1-c1sc(N(CC)c2ccccc2)nc1-c1ccccc1 | 56% | 14% | 39% |  |  |  |
| CCOC(=O)c1cn(-c2ccccc2)nc1-c1sc(N(CC)c2ccccc2)nc1-c1ccccc1 | 47% | 0% | 23% |  |  |  |
| CCOC(=O)c1cn(-c2ccc(F)cc2)nc1-c1sc(N(CC)c2ccccc2)nc1-c1ccccc1 | 48% | 0% | 22% |  |  |  |
| CCOC(=O)c1cn(-c2ccc(Cl)cc2)nc1-c1sc(N(CC)c2ccccc2)nc1-c1ccccc1 | 58% | 2% | 29% |  |  |  |
| CCOC(=O)c1cn(-c2ccc([N+](=O)[O-])cc2[N+](=O)[O-])nc1-c1sc(N(CC)c2ccccc2)nc1-c1ccccc1 | 73% | 0% | 35% |  |  |  |
| CCOC(=O)c1c[nH]nc1-c1sc(N(Cc2ccccc2)c2ccccc2)nc1-c1ccccc1 | 78% | 13% | 23% |  |  |  |
| CCOC(=O)c1cn(-c2ccccc2)nc1-c1sc(N(Cc2ccccc2)c2ccccc2)nc1-c1ccccc1 | 53% | 12% | 21% |  |  |  |
| CCOC(=O)c1cn(-c2ccc(F)cc2)nc1-c1sc(N(Cc2ccccc2)c2ccccc2)nc1-c1ccccc1 | 46% | 16% | 10% |  |  |  |
| CCOC(=O)c1cn(-c2ccc(Cl)cc2)nc1-c1sc(N(Cc2ccccc2)c2ccccc2)nc1-c1ccccc1 | 20% | 7% | 2% |  |  |  |
| CCOC(=O)c1c[nH]nc1-c1sc(N(C)c2ccccc2)nc1-c1ccccc1 | 71% | 5% | 26% |  |  |  |
| CCOC(=O)c1cn(-c2ccccc2)nc1-c1sc(N(C)c2ccccc2)nc1-c1ccccc1 | 52% | 0% | 25% |  |  |  |
| CCOC(=O)c1cn(-c2ccc(F)cc2)nc1-c1sc(N(C)c2ccccc2)nc1-c1ccccc1 | 61% | 4% | 33% |  |  |  |
| C[C@@H]1C[C@H]2[C@@H]3CCC4=CC(=O)C=C[C@]4(C)[C@@]3(F)[C@@H](O)C[C@]2(C)[C@@]1(O)C(=O)CO [DEXAMETHASONE] |  |  |  | 0% | 85% | 72% |
